{"source": "patent US20250320215A1", "about": "“SALTS OF N-[4-(4-[[2-(DIMETHYLAMINO)ETHYL]AMINO]-3-METHYL-1H-PYRAZOLO[3,4-D]PYRIMIDIN-6-YL)-2-FLUOROPHENYL]-2,5-DIFLUOROBENZENESULFONAMIDE AND CRYSTALLINE FORMS THEREOF” (THRYV THERAPEUTICS INC, priority 2022, published 2025)", "format_in_all_cases": "physicochemical", "key": {"[1]": {"assay": "Estimated solubility by solvent addition method via visual assessment", "details": "thermodynamic from solid, room temperature, read-out: Solubility", "description": "Solubility of Compound 3 Form B was estimated in 30 solvents at room temperature and in 9 organic solvents at 70° C. using solvent addition method via visual assessment.\nProtocol: about 3 mg of Compound 3 Form B was weighed into a sample vial and the solvent was added gradually with vortex until the drug solution was clear by observation or a total of 2 mL solvent was added. Then, the estimated solubility (mg/mL) was calculated.\nSolubility of Compound 4, Form B was estimated in 18 solvents at room temperature using solvent addition method via visual assessment. About 3 mg of Compound 4, Form B was weighed into a sample vial and the solvent was added gradually with vortex until the solution was clear by observation or a total of 2 mL solvent was added. Then, the estimated solubility (mg/mL) was calculated."}, "[2]": {"assay": "Water activity study (competition of forms, XRPD)", "details": "room temperature", "description": "Water activity study was performed using Compound 3 Form B (anhydrate) as the input material in EtOH/Water with different water content at RT. About 5 mg of Compound 3, Form B was used to prepare saturated solutions and the solutions were filtered by syringe at RT. 5 mg of Compound 3, Form D were added in the 1 mL of filtrate, and the suspension was slurried at RT for 3 and 7 days. The solids collected after filtration were analyzed by XRPD.\nProtocol: excess amount of Compound 4 Form B was used to prepare saturated solutions. 6-8 mg each of Compound 4 Form B and Form D were added in the solutions. The suspension was slurried at room temperature for the corresponding times. Residual solids were collected by filtration with syringe filter, and characterized by XRPD."}, "[3]": {"assay": "Solid stability testing (HPLC purity and XRPD)", "description": "HPLC analysis were performed with an Agilent HPLC 1260 series instrument. HPLC method for stability testing is as follows:\nSolid stability testing of Compound 3, Form D was evaluated at the conditions of 60° C. (capped) and 40° C./75% RH (open) for 7 days. Polymorphic form and purity were analyzed by XRPD and HPLC, respectively. […] (capped) and 40° C./75% RH (open) for 7 days.\nSolid stability testing of Compound 4 Form B and Form D were evaluated at the conditions of 60° C. (vial close) and 40° C./75% RH (vial open) for 7 days. Polymorphic form and purity were checked by XRPD and HPLC, respectively."}, "[4]": {"assay": "Slurry study evaluated by XRPD", "description": "About 20 mg of Compound 3, Form B was weighed into a sample vial and then 1 mL of solvent was added to make a suspension. The suspension was stirred at room temperature or 50° C. for 3 days and 11 days. Then, the wet solid was collected by filtration and analyzed by XRPD.\n20-30 mg of Compound 4 Form B was added in 1 mL of selected solvents at room temperature or 50° C. The suspension was slurried at room temperature or 50° C. for 3 days and 11 days. The wet solids collected from filtration were examined by XRPD. There were four crystal forms obtained by slurrying, including di-mesylate Forms B, C and D as well as mono-mesylate Form G."}, "[5]": {"assay": "Thermal treatment (heat-cool cycle by DSC, XRPD of resulting solids)", "details": "Heated to 130° C. at 10° C./min, and cooled to 25° C. at 5° C./min", "description": "Compound 3, Form E was treated with heat-cool cycle by DSC. The resulted solids were characterized by XRPD. Compound 3, Form E, was converted to Compound 3, Form D after desolvation.\nCompound 4 Form B was treated with heat-cool cycle by DSC. The resulted solids were checked by XRPD. […] The water was excluded at elevated temperature, then entered in the crystal lattice again at room temperature.\nCompound 4 Form C and trace Form B was treated with heat-cool cycle by DSC. The resulted solids were checked by XRPD. The sample was converted to low crystalline (LC) Form B after heating to 175° C.\nCompound 4 Form D was treated with heat-cool cycle by DSC. The resulted solids were checked by XRPD. The sample kept unchanged after heating to 140° C., but was converted to a new low crystalline form after heating to 210° C. which was assigned to Form F."}, "[6]": {"details": "slurry in ACN/Water (9/1, v/v) at RT"}}, "note": "Where two headings read alike, the source gives them in different places."}
{"smiles": "Cc1n[nH]c2nc(-c3ccc(NS(=O)(=O)c4cc(F)ccc4F)c(F)c3)nc(NCCN(C)C)c12", "note": "[Compound 4 Form B]", "values": [{"measurement": "solubility", "setting": "[1]; organic solvent or mixture, 2-Me THF", "value": "< 1500", "unit": "µg/mL"}, {"measurement": "solubility", "setting": "[1]; organic solvent or mixture, ACN", "value": "< 1500", "unit": "µg/mL"}, {"measurement": "solubility", "setting": "[1]; organic solvent or mixture, ACN/Water (9/1, v/v)", "value": "15000 to 20000", "unit": "µg/mL"}, {"measurement": "solubility", "setting": "[1]; organic solvent or mixture, Acetone", "value": "< 1500", "unit": "µg/mL"}, {"measurement": "solubility", "setting": "[1]; organic solvent or mixture, DCM", "value": "< 1500", "unit": "µg/mL"}, {"measurement": "solubility", "setting": "[1]; organic solvent or mixture, DMA", "value": "75000 to 150000", "unit": "µg/mL"}, {"measurement": "solubility", "setting": "[1]; organic solvent or mixture, DMSO", "value": "> 150000", "unit": "µg/mL"}, {"measurement": "solubility", "setting": "[1]; organic solvent or mixture, EA", "value": "< 1500", "unit": "µg/mL"}, {"measurement": "solubility", "setting": "[1]; organic solvent or mixture, EtOH", "value": "3750 to 7500", "unit": "µg/mL"}, {"measurement": "solubility", "setting": "[1]; organic solvent or mixture, IPA", "value": "< 1500", "unit": "µg/mL"}, {"measurement": "solubility", "setting": "[1]; organic solvent or mixture, IPAC", "value": "< 1500", "unit": "µg/mL"}, {"measurement": "solubility", "setting": "[1]; organic solvent or mixture, MEK", "value": "< 1500", "unit": "µg/mL"}, {"measurement": "solubility", "setting": "[1]; organic solvent or mixture, MTBE", "value": "< 1500", "unit": "µg/mL"}, {"measurement": "solubility", "setting": "[1]; organic solvent or mixture, MeOH", "value": "12000 to 20000", "unit": "µg/mL"}, {"measurement": "solubility", "setting": "[1]; organic solvent or mixture, MeOH/Water (9/1, v/v)", "value": "75000 to 150000", "unit": "µg/mL"}, {"measurement": "solubility", "setting": "[1]; organic solvent or mixture, NMP", "value": "> 150000", "unit": "µg/mL"}, {"measurement": "solubility", "setting": "[1]; organic solvent or mixture, THF", "value": "< 1500", "unit": "µg/mL"}, {"measurement": "solubility", "setting": "[1]; Water", "value": "75000 to 150000", "unit": "µg/mL"}, {"measurement": "water activity (aw) at which the form is stable / the most stable form", "setting": "[2]", "value": "≤ 0.08"}, {"measurement": "Solid stability", "setting": "[3]; 40° C./75% RH (open), day 7", "value": "partially converted to Form D"}, {"measurement": "Solid stability", "setting": "[3]; 60° C. (close), 7 days", "value": "chemically and physically stable"}, {"measurement": "Purity, Initial T0", "setting": "[3]; HPLC, before storage", "value": 99.47, "unit": "%"}, {"measurement": "Purity - 7 days, 60° C.", "setting": "[3]; HPLC, capped/closed vial, 7 days", "value": 99.41, "unit": "%"}, {"measurement": "Purity - 7 days, 40° C./75% RH", "setting": "[3]; HPLC, open, 7 days", "value": 99.18, "unit": "%"}, {"measurement": "XRPD, Initial T0", "setting": "[3]; before storage", "value": "Form B"}, {"measurement": "XRPD - 7 days, 60° C.", "setting": "[3]; capped/closed vial, 7 days", "value": "Form B"}, {"measurement": "XRPD Result Day 3/Wet", "setting": "[4]; slurry in 2-Me THF at 50° C.", "value": "Form D"}, {"measurement": "XRPD Result Day 11/Wet", "setting": "[4]; slurry in 2-Me THF at 50° C.", "value": "Form D"}, {"measurement": "XRPD Result Day 3/Wet", "setting": "[4]; slurry in 2-Me THF at RT", "value": "Form D"}, {"measurement": "XRPD Result Day 11/Wet", "setting": "[4]; slurry in 2-Me THF at RT", "value": "Form D"}, {"measurement": "XRPD Result Day 3/Wet", "setting": "[4]; slurry in ACN at 50° C.", "value": "Form B"}, {"measurement": "XRPD Result Day 11/Wet", "setting": "[4]; slurry in ACN at 50° C.", "value": "Form B"}, {"measurement": "XRPD Result Day 3/Wet", "setting": "[4]; slurry in ACN at RT", "value": "Form B"}, {"measurement": "XRPD Result Day 11/Wet", "setting": "[4]; slurry in ACN at RT", "value": "Form B"}, {"measurement": "XRPD Result Day 3/Wet", "setting": "[4]; [6]", "value": "Form D"}, {"measurement": "XRPD Result Day 11/Wet", "setting": "[4]; [6]", "value": "Form D"}, {"measurement": "XRPD Result Day 3/Wet", "setting": "[4]; slurry in Acetone at 50° C.", "value": "Form C"}, {"measurement": "XRPD Result Day 11/Wet", "setting": "[4]; slurry in Acetone at 50° C.", "value": "Form D"}, {"measurement": "XRPD Result Day 11/Wet", "setting": "[4]; slurry in Acetone at RT", "value": "Form D"}, {"measurement": "XRPD Result Day 3/Wet", "setting": "[4]; slurry in DCM at 50° C.", "value": "Form B"}, {"measurement": "XRPD Result Day 3/Wet", "setting": "[4]; slurry in DCM at RT", "value": "Form D"}, {"measurement": "XRPD Result Day 11/Wet", "setting": "[4]; slurry in DCM at RT", "value": "Form D"}, {"measurement": "XRPD Result Day 3/Wet", "setting": "[4]; slurry in EA at 50° C.", "value": "Form D"}, {"measurement": "XRPD Result Day 11/Wet", "setting": "[4]; slurry in EA at 50° C.", "value": "Form D"}, {"measurement": "XRPD Result Day 11/Wet", "setting": "[4]; slurry in EA at RT", "value": "Form D"}, {"measurement": "XRPD Result Day 3/Wet", "setting": "[4]; slurry in EtOH at RT", "value": "Form D"}, {"measurement": "XRPD Result Day 11/Wet", "setting": "[4]; slurry in EtOH at RT", "value": "Form D"}, {"measurement": "XRPD Result Day 3/Wet", "setting": "[4]; slurry in IPA at 50° C.", "value": "Form D"}, {"measurement": "XRPD Result Day 11/Wet", "setting": "[4]; slurry in IPA at 50° C.", "value": "Form D"}, {"measurement": "XRPD Result Day 3/Wet", "setting": "[4]; slurry in IPA at RT", "value": "Form D"}, {"measurement": "XRPD Result Day 11/Wet", "setting": "[4]; slurry in IPA at RT", "value": "Form D"}, {"measurement": "XRPD Result Day 3/Wet", "setting": "[4]; slurry in IPAC at 50° C.", "value": "Form D"}, {"measurement": "XRPD Result Day 11/Wet", "setting": "[4]; slurry in IPAC at 50° C.", "value": "Form D"}, {"measurement": "XRPD Result Day 3/Wet", "setting": "[4]; slurry in IPAC at RT", "value": "Form D"}, {"measurement": "XRPD Result Day 11/Wet", "setting": "[4]; slurry in IPAC at RT", "value": "Form D"}, {"measurement": "XRPD Result Day 3/Wet", "setting": "[4]; slurry in MEK at 50° C.", "value": "Form D"}, {"measurement": "XRPD Result Day 11/Wet", "setting": "[4]; slurry in MEK at 50° C.", "value": "Form D"}, {"measurement": "XRPD Result Day 3/Wet", "setting": "[4]; slurry in MEK at RT", "value": "Form D"}, {"measurement": "XRPD Result Day 11/Wet", "setting": "[4]; slurry in MEK at RT", "value": "Form D"}, {"measurement": "XRPD Result Day 3/Wet", "setting": "[4]; slurry in MTBE at 50° C.", "value": "Form D"}, {"measurement": "XRPD Result Day 11/Wet", "setting": "[4]; slurry in MTBE at RT", "value": "Form D"}, {"measurement": "XRPD Result Day 3/Wet", "setting": "[4]; slurry in MeOH at RT", "value": "Form B"}, {"measurement": "XRPD Result Day 11/Wet", "setting": "[4]; slurry in MeOH at RT", "value": "Form B"}, {"measurement": "XRPD Result Day 3/Wet", "setting": "[4]; slurry in THF at 50° C.", "value": "Form C"}, {"measurement": "XRPD Result Day 3/Wet", "setting": "[4]; slurry in THF at RT", "value": "Form C"}, {"measurement": "XRPD Result Day 11/Wet", "setting": "[4]; slurry in THF at RT", "value": "Form D"}, {"measurement": "XRPD Result", "setting": "[4]; slurry in Water at RT or 50° C. for 3 days", "value": "Mono-mesylate Form G was obtained."}, {"measurement": "XRPD Resulting Form", "setting": "[5]", "value": "Form B"}]}
